Results: US7223787B2, “Prenylation inhibitors reduce host cell permissiveness to viral replication” (priority 2003, dated 2007)

Legend:
Huh7-K2040 cells [1] = details: for cellular DNA synthesis / cellular mRNA synthesis / levels: 24 hours
Text: (§2) We therefore examined the influence of lovastatin upon the synthesis of DNA, mRNA, and protein in Huh7-K2040 cells.

HCV RNA replication [2] = test: HCV RNA replicon levels in Huh7-K2040 cells (subgenomic replicon); details: for viral RNA levels (effect in words): 24-hour culture period; for rescue of HCV RNA levels from the suppressive action of lovastatin: lovastatin-treated Huh7-K2040 cells supplemented with the metabolite, 24-hour culture
Rap1a = test: SDS-PAGE and blot of Rap1a prenylation in Huh7-K2040 cells; assay type: cell-based, human
[3] = tested on: HCV replication complex (NS5A); test: Immunocytochemical NS5A staining of the HCV replication complex; assay type: cell-based, hepatitis C virus
Text: HCV Replication Complex Requires Protein Geranylgeranylation. Among other functions, geranylgeranylated proteins mediate the interaction of membranes with cytoskeletal proteins (8). Such interactions are likely to be required for the formation of the ER-associated HCV replication complex, which contains the viral RNA as well as the nonstructural viral proteins (1, 2). […] To test whether lovastatin affects the replication complex, we stained cells with an antibody to NS5A and an FITC-labeled second antibody. In the absence of lovastatin treatment, much of the NS5A was localized in a punctate pattern consistent with the ER localization of the HCV replication complex.

H-Ras = test: Prenylation of wild-type H-Ras (blot); assay type: cell-based; details: 10 μM
Text: (§1) In contrast, FPTI-III had no effect on viral RNA levels. To confirm the specificity of GGTI-286 and FPTI-III action, we evaluated the effect of each compound on the prenylation of wild-type H-Ras, which is normally farnesylated, and a mutant H-Ras(S189L) in which the carboxyl-terminal amino acid has been changed to leucine, making it a substrate for GGTase 1 (21). […] Thus, the inhibitory activity of GGTI-286 on HCV RNA replication must be due to its action against GGTase I, and not farnesyl transferase.

H-Ras(S189L) = test: Prenylation of mutant H-Ras(S189L), substrate for GGTase I (blot); assay type: cell-based; details: 10 μM
Text: as §1

West Nile virus [4] = test: WN virus replication in mammalian cell types; assay type: cell-based; details: several mammalian cell types
Method: Cells and virus. Vero (ATCC CCL-81) cells are grown in minimal essential medium (MEM) supplemented with 10% fetal bovine serum (FBS). BHK-21/WI2 (BHK-21) and Aedes albopictus C6/36 (C6/36) (ATCC CRL-1660) cells are grown in Dulbecco's modification of MEM with 10% FBS and 0.1 mM nonessential amino acids. Antibiotics are added to all media at 10 U/ml of penicillin and 10 μg/ml of streptomycin. Cells are maintained in 5% CO2 at 37° C. (Vero and BHK-21) or 28° C. (C6/36). West Nile viruses are obtained from the World Arbovirus Reference Collection and stocks are grown and plaque titrated in Vero cells. Prenylation inhibitors examined over a series of 10-fold dilutions.
IFA. Indirect immunofluorescence assays (IFA) are used to detect viral protein expression in WNV RNA-transfected BHK-21 cells. After electroporation, approximately 10^5 transfected cells are spotted onto 10-mm glass coverslips. Cells on coverslips are analyzed by IFA at various times posttransfection for viral protein synthesis. […] The coverslips are washed with PBS, mounted to a slide using fluorescent mounting medium (KPL), and observed under a fluorescence microscope equipped with a video documentation system (Zeiss, Thornwood, N.Y.).
Specific infectivity assay. […] Plaques are counted after incubation of the plates for another 12 to 24 h, and the specific infectivity is calculated as the number of PFU per microgram of RNA. […]

West Nile virus [5] = test: WN virus replication in a mouse model; assay type: in vivo
Text: Virulence in mice. Mice are housed in an environmentally controlled room under biosafety level 3 conditions and are given food and water ad libitum. Female outbred CD-1 mice (Charles River Laboratories, Wilmington, Mass.) are obtained at 5 weeks of age and acclimatized for 1 week. All mice are 6 weeks of age at the start of the experiment. Eight mice per group are inoculated with diluent alone or with 10^2 PFU of virus subcutaneously (s.c.) in the left rear footpad. Diluent is PBS (endotoxin-free) supplemented with 1% FBS. Mice are evaluated clinically and weighed daily for 2 weeks, then monitored daily and weighed thrice weekly for 2 more weeks. Observed clinical signs include ruffled fur, paresis, hindleg paralysis, and tremors. Morbidity is defined as exhibition of greater than 10% weight loss or clinical signs for 2 or more days. Mice are euthanized if they become moribund.

Huh7-K2040 cells [6] = test: Cell viability of treated cultures; details: cultures treated over 7 days, at the concentrations used
Text: as §2

HCV RNA replication [7] = test: HCV RNA replicon levels in Huh7-HP cells (subgenomic replicon)
HCV RNA replication [8] = test: HCV RNA replicon levels in Huh7-C5B3 cells (genome-length replicon)
HCV replicon RNA = details: hepatoma cells, recent studies (ref. 23); cited from earlier work

NC(=O)NO [hydroxyurea]
global rate of cellular protein synthesis (Huh7-K2040 cells [1]): moderately suppressed | cellular DNA synthesis (Huh7-K2040 cells [1]): blocked DNA synthesis | cellular mRNA synthesis / levels (Huh7-K2040 cells [1]): did not affect | viral RNA levels (effect in words) (HCV RNA replication [2]; Huh7-K2040 cells): did not affect

COC(=O)[C@H](CC(C)C)NC(=O)c1ccc(NC[C@@H](N)CS)cc1-c1ccccc1 [GGTI-286]
prenylation of endogenous Rap1a (Rap1a; 10 μM): clear-cut inhibitory effects | redistribution of HCV NS5A protein from punctate to diffuse pattern [3]: produced a redistribution | prenylation (farnesylation) of wild-type H-Ras (H-Ras): inhibiting farnesylation of H-Ras | prenylation (geranylgeranylation) of H-Ras(S189L) (H-Ras(S189L)): inhibiting farnesylation of H-Ras as well as geranylgeranylation of H-Ras(S189L) | level of HCV RNA (HCV RNA replication [2]; Huh7-K2040 cells, increasing concentrations of inhibitor): dose-dependent decrease

CC(C)=CCCC(C)=CCCC(C)=CCO [farnesol]
rescue of HCV RNA levels from the suppressive action of lovastatin (HCV RNA replication [2]): neither farnesol nor oleate, mediated a dose-dependent rescue

CC[C@H](C)C(=O)O[C@H]1C[C@@H](C)C=C2C=C[C@H](C)[C@H](CC[C@@H]3C[C@@H](O)CC(=O)O3)[C@H]21 [lovastatin]
prenylation state of Rap1a (Rap1a; Huh7-K2040 cells): caused the appearance of a slow-migrating form | punctate NS5A staining pattern ([3]; treatment for 48 hours): largely disappeared | WN virus replication (West Nile virus [4]): disrupted | WN virus replication (West Nile virus [5]): disrupted | cell viability (Huh7-K2040 cells [6]): no significant effects | global rate of cellular protein synthesis (Huh7-K2040 cells [1]): moderately suppressed | cellular DNA synthesis (Huh7-K2040 cells [1]): did not significantly affect | cellular mRNA synthesis / levels (Huh7-K2040 cells [1]): did not significantly affect | levels of viral proteins (HCV RNA replication [7]): reduced the levels of viral proteins | reduction of HCV RNA levels (HCV RNA replication [2]; Huh7-K2040 cells, after 72 hours): more than 95% | reduction of HCV RNA levels (HCV RNA replication [2]; Huh7-K2040 cells, after a 24-hour treatment): more than 70% | viral protein levels (HCV RNA replication [2]; Huh7-K2040 cells, over a 72-hour culture period): reduction in viral protein levels | levels of viral proteins (HCV RNA replication [8]): reduced the levels of viral proteins

CC(O)(CCO)CC(=O)O (centres unmarked) [mevalonate]
rescue of HCV RNA levels from the suppressive action of lovastatin (HCV RNA replication [2]): dose-dependent rescue

C[C@@]1(CO)[C@H](O)CC[C@@]2(C)[C@H]1CC[C@H]1C[C@@H]3C[C@@]12CC[C@]3(O)CO [aphidicolin]
global rate of cellular protein synthesis (Huh7-K2040 cells [1]): moderately suppressed | cellular DNA synthesis (Huh7-K2040 cells [1]): blocked DNA synthesis | cellular mRNA synthesis / levels (Huh7-K2040 cells [1]): did not affect | viral RNA levels (effect in words) (HCV RNA replication [2]; Huh7-K2040 cells): did not affect

C[C@H](CCCC(C)(C)O)[C@H]1CC[C@H]2[C@@H]3CC=C4C[C@@H](O)CC[C@]4(C)[C@H]3CC[C@]12C [25-hydroxycholesterol]
level of HCV replicon RNA (HCV replicon RNA): reduce the level of HCV replicon RNA

CC(C)=CCC/C(C)=C/CC/C(C)=C/CC/C(C)=C/CO [geranylgeraniol]
restoration of Rap1a geranylgeranylation (Rap1a; added to lovastatin-treated Huh7-K2040 cells): eliminated the upper band | prevention of loss of punctate NS5A distribution ([3]; added to lovastatin-treated cells): prevented the loss of the punctate distribution | rescue of HCV RNA levels from the suppressive action of lovastatin (HCV RNA replication [2]): mediated a dose-dependent rescue
